In article PMC4706877, “Antibacterial and Cytotoxic Activity of Compounds Isolated from Flourensia oolepis” (Evidence-based Complementary and Alternative Medicine : eCAM, 2015):
≈ marks a conversion by molar mass, not a printed value. Read-outs that look alike come from different tables or passages of the source.

What was measured:
K562 cells [1] = assay: Cell cycle distribution by flow cytometry (PI); type: cell-based, human; details: 2 × IC50, 72 h
Method: […] After treatment, cells were harvested and washed twice with ice cold PBS. Then, cells were fixed with 70% cold ethanol and kept at 4°C for 24 h. Before analysis, the cells were washed twice with PBS and stained with a solution containing propidium iodide (PI, 50 μg/mL, Sigma-Aldrich CO, USA) and RNase A (100 μg/mL, Sigma-Aldrich CO, USA) in PBS (pH 7.4) for 30 min in the dark. DNA content was evaluated by flow cytometry. The relative distribution of at least 20,000 cells was analyzed using FlowJo software version 7.6.2 (Tree Star, Inc. OR, USA).

[2] = tested on: HEK293T non-tumor derived cell line; assay: MTT cell proliferation assay; type: cell-based; details: Homo sapiens, HEK-293T
Text: CCRF-CEM acute lymphoblastic leukemia (ALL) and K562 chronic myeloid leukemia (CML) cells and their MDR P-glycoprotein overexpressing variants, CEM/ADR5000 and Lucena 1, respectively, were a generous gift from Dr. T. Efferth (Institute of Pharmacy and Biochemistry, Johannes Gutenberg University, Mainz, Germany) and Dr. V. Rumjanek (Instituto de Bioquímica Médica Leopoldo de Meis, Universidade Federal do Rio de Janeiro, Rio de Janeiro, Brazil), respectively. The HEK293T non-tumor derived cell line and human isolated mononuclear cells (PBMC) were also tested. […]
To investigate the cytotoxic potential of the isolated compounds, the MTT colorimetric assay was performed. […] The compounds were evaluated at a final maximum concentration of 100 μM. […] Absorbance was measured with an iMark micro-plate reader (Bio-Rad, USA) at 595 nm. […] The percentage of cytotoxic activity of the assayed compounds was determined by the following formula: cytotoxicity (%) = [1 − (optical density of treated cells − optical density DMSO)/(optical density of ethanol control cells − optical density DMSO)] × 100.

[3] = tested on: CEM/ADR5000 cells (MDR, P-glycoprotein overexpressing); assay: cells; type: cell-based, human; details: for IC50: CEM/ADR5000, MTT, 72 h, read-out: IC50 values and 95% confidence limits (lower, upper)
Method: (§1) The HEK293T non-tumor derived cell line and human isolated mononuclear cells (PBMC) were also tested. […] Cells were cultured at 37°C in a 5% CO2 humidified environment.
(§2) The latter concentration was then used for maintenance of the cells. Lucena 1 were continuously cultured in the presence of 60 nM DOX. Both cell lines were grown in drug-free medium 3-4 days before the experiments. Overexpression of P-glycoprotein (P-gp) in both MDR variants was verified by flow cytometry using FITC-labeled mouse anti-human P-gp (BD Pharmingen, USA). Cells were subcultured twice a week from frozen stocks and used before the 20th passage. All experiments were performed with cells in the logarithmic growth phase with cell viabilities over 90%, determined by trypan blue staining.
(§3) To investigate the cytotoxic potential of the isolated compounds, the MTT colorimetric assay was performed. […] The compounds were evaluated at a final maximum concentration of 100 μM. After 72 hours, 20 μL of 5 mg/mL solution of MTT in sterile PBS was added to each well and further incubated for 4 h. Then, the supernatants were removed and replaced with 100 μL DMSO to solubilize the resulting purple formazan crystals produced from metabolically viable cells. Absorbance was measured with an iMark micro-plate reader (Bio-Rad, USA) at 595 nm. Two wells were used for each concentration of the products assayed and three independent experiments were performed. […] The percentage of cytotoxic activity of the assayed compounds was determined by the following formula: cytotoxicity (%) = [1 − (optical density of treated cells − optical density DMSO)/(optical density of ethanol control cells − optical density DMSO)] × 100.
(§4) Data were analyzed by one-way analysis of variance (ANOVA) and means were compared using Bonferroni's comparison test, with p ≤ 0.05 considered as statistically significant.

[4] = tested on: Lucena 1 cells (MDR, P-glycoprotein overexpressing); assay: cells; type: cell-based, human; details: for IC50: Lucena 1, MTT, 72 h, read-out: IC50 values and 95% confidence limits (lower, upper)
Method: as §1, §2, §3, §4

CCRF-CEM cells [5] = assay: Cell cycle distribution by flow cytometry (PI); type: cell-based, human; details: 2 × IC50, 72 h
Method: Control cells were devoid of 1 and negative controls contained 1% ethanol. After treatment, cells were harvested and washed twice with ice cold PBS. Then, cells were fixed with 70% cold ethanol and kept at 4°C for 24 h. Before analysis, the cells were washed twice with PBS and stained with a solution containing propidium iodide (PI, 50 μg/mL, Sigma-Aldrich CO, USA) and RNase A (100 μg/mL, Sigma-Aldrich CO, USA) in PBS (pH 7.4) for 30 min in the dark. DNA content was evaluated by flow cytometry. The relative distribution of at least 20,000 cells was analyzed using FlowJo software version 7.6.2 (Tree Star, Inc. OR, USA).

CCRF-CEM cells [6] = assay: Apoptosis by Annexin V/PI double staining; type: cell-based, human; details: 2 × IC50, 72 h
Method: (§5) After incubation, cells were harvested, washed, and suspended in cold PBS. The proportion of cells undergoing apoptosis was examined by double staining using allophycocyanin (APC) conjugated Annexin-V (BD Pharmingen, USA) and propidium iodide (Sigma-Aldrich CO, USA). Over the following hour, the fluorescence of ten thousand cells, including that of control groups, was assayed and populations were analyzed with FlowJo software version 7.6.2 (Tree Star, Inc., OR, USA). Percentages of Annexin-V positive cells (PI− or PI+) indicate early or late apoptosis, respectively.

K562 cells [7] = assay: Apoptosis by Annexin V/PI double staining; type: cell-based, human; details: 2 × IC50, 72 h
Method: as §5

normal hepatocytes = tested on: normal hepatocytes; set-up: method as in PMID 15223357; details: trypan blue exclusion method; cited from earlier work

O=C(/C=C/c1ccccc1)c1ccc(O)cc1O [Compound 1, 2′,4′-dihydroxychalcone]
cells in the G2/M phase (K562 cells [1]): 19% | hypodiploid sub-G1 population (K562 cells [1]; ethanol control 1%): 25% | IC50 [2]: 67 µM | IC50 [3]: 9.9 µM | resistant index (RI) = IC50 resistant cells/IC50 sensitive cells ([3]; CEM/ADR5000 vs CCRF-CEM): 1.5 | IC50 ([3]; Homo sapiens, ADR5000, 72 h): < 10 µM | selectivity index (IC50 ratio) ([3]; IC50 HEK293T / IC50 CEM/ADR5000): 6.8 | selectivity index (IC50 ratio) ([3]; IC50 PBMC / IC50 CEM/ADR5000): 8.4 | IC50 ([4]; Homo sapiens, Lucena 1, 72 h): < 30 µM | IC50 [4]: 30 µM | resistant index (RI) = IC50 resistant cells/IC50 sensitive cells ([4]; Lucena 1 vs K562): 1.1 | hypodiploid sub-G1 population (CCRF-CEM cells [5]; ethanol control 1%): 10% | cells in the G2/M phase (CCRF-CEM cells [5]; ethanol control 7%): 34% | early and late apoptotic cells (CCRF-CEM cells [6]): 26.7% | early and late apoptotic cells (K562 cells [7]): 68.7% | IC50 (normal hepatocytes): 34 µg/mL (≈ 142 µM)
